Experimental findings from article PMC7821381, “Multi-Targeted Anticancer Activity of Imidazolate Phosphane Gold(I) Compounds by Inhibition of DHFR and TrxR in Breast Cancer Cells” (Frontiers in Chemistry, 2021) are described below.

The subject of test [1] is DAPI-ct-DNA complex. The experiment in a line: Minor groove displacement assay with DAPI (DAPI-ct-DNA). It is filed as binding, calf. The conditions noted are these: competitive DAPI displacement, fluorescence quenching, pH 7.4. The protocol: The changes in the emission spectra of DAPI complex with the DNA in 10 mM tris-HCl buffer at pH 7.4, 10 mM NaCl, were monitored upon addition of increasing concentrations of gold-compounds 5 and 6 at room temperature. Fluorescence quenching data were evaluated after excitation of DAPI-ct-DNA complex at 338 nm and recording the spectra from 400 to 600 nm. Values of Ksv constants were evaluated using Equation 3 and the quenching fluorescence values obtained were corrected according to Equation 2.

Test [2] has as its target T1, dihydrofolate reductase (DHFR) (Homo sapiens, UniProt P00374).
T1 construct: Cell lysates were collected using Cell Culture Lysis Reagent; endogenous in cells; host or cells: MDA-MB231 and SKBR3 (human breast cancer cells)
T1 sequence (P00374 1-187): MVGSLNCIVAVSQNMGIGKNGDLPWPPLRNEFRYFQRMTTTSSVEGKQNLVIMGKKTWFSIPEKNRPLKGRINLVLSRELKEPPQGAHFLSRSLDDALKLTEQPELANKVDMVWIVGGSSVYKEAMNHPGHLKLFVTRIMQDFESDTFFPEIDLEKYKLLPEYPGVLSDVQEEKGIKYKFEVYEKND
The experiment in a line: DHFR specific enzymatic activity in lysates of treated MDA-MB231 cells. The test is classed as cell-based. The conditions noted are these: 8 μM (maximum inhibition). As for the experimental part:
SKBR3, MDA-MB-231 and A17 cells were plated onto 100 mm cell culture dishes (2 × 10^6 cells/ dish). The day after, cells were treated with vehicle alone (DMSO) as control or increasing concentrations of compound 5 and compound 6 in DMEM supplemented with 2% FBS (Invitrogen, Carlsbad, CA) for 4 h or 12 h. Representative pictures of cells treated with compound 5 or 6 at the indicated concentration for 4 or 12 h just before to take cell lysates for the enzymatic tests are reported as supplemental files. Cell lysates were collected using Cell Culture Lysis Reagent (Promega, Madison, WI) supplemented with BSA (1%) and protease inhibitors. DHFR activity was assessed by spectrophotometric assay as reported elsewhere (Wang et al., [2020]) in which the reaction rate was followed by recording the decreasing absorbance at 340 nm due to oxidation of NADPH to NADP^+, using a Shimadzu UV-2450 spectrophotometer. When necessary, because of low protein content in the lysates, the DHFR enzymatic activity was measured by a discontinuous direct HPLC assay using an Agilent 1100 system. HPLC-DAD (Agilent 1100) was used to detect and quantify the presence of NADP^+, as one of the products of DHFR catalyzed reaction, in cell lysates. Fifty microliter of the cell lysate were incubated at 37°C in a reaction mixture containing 760 μl of buffer (0.05 M Hepes pH 7.3), 20 μl of NADPH 4 mM, and 20 μl of dihydrofolate (H2F) 4 mM. The samples for HPLC analysis were prepared as follows: 50 μl aliquots of each mixture were stopped at different times (0, 5, 10, 20, 30, and 60 min) by adding 25 μl of HClO4 1.2 M; after 10 min on ice and centrifugation for 5 min at 12,000 g, 60 μl of each supernatant were neutralized by adding 17.5 μl of K2CO3 0.79 M, kept on ice and centrifuged again. Fifty microliter of the supernatant obtained were directly injected into the reversed phase column for separations of reagents and products of the enzyme catalyzed reaction. The column used is a Supelcosil LC RP 18 (4.6 × 250 mm) with pre-column SupelGuard. The HPLC settings are the same reported in Wang et al. ([2020]). The amounts of product (NADP^+) were determined from the peak areas of the HPLC-separated compounds with reference to appropriate standards. One enzyme unit is defined as the amount of enzyme which catalyzes the reduction of 1 μmol of dihydrofolate, per minute, at 37°C. Enzyme activities were normalized by the protein content, determined by the Bradford assay (Bradford, [1976]).

In test [3] the test system is A17 cells. Put plainly: MTT cell viability assay on A17 cells. The settings on record: A17, 48 h, ± S. D. It is filed as cell-based, murine. From the text:
Human MDA-MB-231 (ER–/PR–/HER2–) and SK-BR-3 (ER–/PR–/HER2+) cells were obtained from American Type Culture Collection (Rockville, MD) and cultured in Dulbecco's Modified Essential Medium (DMEM, Gibco, Life Technologies) supplemented with 10% fetal bovine serum (FBS, Gibco, Life Technologies) and 1% penicillin–streptomycin (Gibco, Life Technologies). A17 cells were established from a spontaneous lobular carcinoma that arose in an FVB/neuT mouse (Galiè et al., [2005]), and maintained in DMEM plus 20% FBS and 1% penicillin-streptomycin. Cells were cultured at 37°C under humidified atmosphere with 5% CO2.
Stock solutions were prepared for each gold(I) compound (50 mM) using dimethyl sulfoxide (DMSO) (Sigma-Aldrich) as solvent. The effects of gold(I) compounds on SKBR3, A17 and MDA-MB231 cells viability were evaluated by seeding, respectively, 10, ^*10^3, 2.5 ^*10^3, 7, ^*10^3 cells/well in 96 wells plates in complete medium (DMEM supplemented with FBS) and compared to those of cisplatin. The day after, fresh medium containing vehicle alone (DMSO, 1 % v/v final concentration) or increasing concentrations of each compound ranging from 0.1 to 100 μM was added. Cell viability was determined using a MTT [3-(4,5-dimethylthiazol-2-yl)-2,5-diphenyl-2H-tetrazolium bromide Sigma Aldrich, St. Louis, MO] assay, which is based on the conversion of MTT to formazan crystals by mitochondrial enzymes, after 24, 48, and 72 h. The formazan deposits were dissolved in DMSO and the absorbance of each well was measured at 540 nm in Multiskan Ascent 96/384 Plate Reader. Each drug concentration was evaluated with 8 replicates and each experiment was repeated three times. At the end of the experiments a dose–response curve was plotted, and the IC50 concentrations were determined. […] Quantitative data are presented as means ± SEM. […]
IC50 values were calculated for each of the cell lines tested, by fitting the concentration-effect curves data obtained in the three experiments with the sigmoid-Emax model using nonlinear regression, weighted by the reciprocal of the square of the predicted effect.

[4] abbreviates: MDA-MB231, 4 h treatment, control 5.38 ± 0.38.
Setting [5] is: MDA-MB231, 12 h treatment, control 0.64 ± 0.02.

By IC50 is commonly meant the point on the concentration scale where inhibition reaches its midpoint. High values mean a need for much substance, low ones inhibition by little substance. For “4,5-dichloro-imidazolate-1yl-gold(I)-(triphenylphosphane) [Compound 6]”, in test [1], the “DAPI-ct-DNA Ksv” value is 4.98 ± 0.08 10^3 M^−1. The “Specific enzymatic activity of DHFR” value in test [2] (setting [4]) is given as 1.75 ± 0.34 mU/mg; in test [2] (setting [5]), 0.55 ± 0.002 mU/mg. Further, the half-maximal inhibitory concentration (IC50) in test [3] came out at 14.4 ± 0.7 µM.

In the case of “4,5-dicyano-imidazolate-1yl-gold(I)-(triphenylphosphane) [Compound 5]”, the “DAPI-ct-DNA Ksv” value in test [1] is on record as 6.12 ± 0.09 10^3 M^−1. Moreover, the “Specific enzymatic activity of DHFR” value in test [2] (setting [4]) is listed as 2.37 ±0.39 mU/mg; in test [2] (setting [5]), 0.42 ± 0.01 mU/mg. The same substance yielded an IC50 in test [3] of 16.2 ± 0.59 µM.
